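Five compound concentrations were applied to cells in 96-well plates for 48 hours; endpoints were derived by simple linear interpolation of the resulting dose-response curve. The concentration for 50% growth inhibition is given as GI50.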 Active and inactive are the calls of the source. Rule as the data show it: active = GI50 up to about 1.1 µM and inactive = higher.
Assays:
Assay in all cases: DTP human tumour cell line panel, 48 h
786-0 = tested on: 786-0
A549 = tested on: A549
ACHN = tested on: ACHN
BT-549 = tested on: BT-549
CAKI-1 = tested on: CAKI-1
CCRF-CEM = tested on: CCRF-CEM
COLO 205 = tested on: COLO 205
DU-145 = tested on: DU-145
EKVX = tested on: EKVX
HCC 2998 = tested on: HCC 2998
HCT-116 = tested on: HCT-116
HCT-15 = tested on: HCT-15
HL-60 = tested on: HL-60
HOP-62 = tested on: HOP-62
HOP-92 = tested on: HOP-92
HT-29 = tested on: HT-29
Hs-578T = tested on: Hs-578T
IGROV-1 = tested on: IGROV-1
K562 = tested on: K562
KM12 = tested on: KM12
LOX IMVI = tested on: LOX IMVI
M14 = tested on: M14
MCF7 = tested on: MCF7
MDA-MB-231 = tested on: MDA-MB-231
MDA-MB-435 = tested on: MDA-MB-435
MDA-N = tested on: MDA-N
MOLT-4 = tested on: MOLT-4
Malme-3M = tested on: Malme-3M
NCI-H226 = tested on: NCI-H226
NCI-H23 = tested on: NCI-H23
NCI-H460 = tested on: NCI-H460
NCI-H522 = tested on: NCI-H522
NCI/ADR-RES = tested on: NCI/ADR-RES
OVCAR-4 = tested on: OVCAR-4
OVCAR-8 = tested on: OVCAR-8
PC-3 = tested on: PC-3
RPMI-8226 = tested on: RPMI-8226
RXF 393 = tested on: RXF 393
SF-268 = tested on: SF-268
SF-295 = tested on: SF-295
SF-539 = tested on: SF-539
SK-MEL-28 = tested on: SK-MEL-28
SK-MEL-5 = tested on: SK-MEL-5
SK-OV-3 = tested on: SK-OV-3
SN12C = tested on: SN12C
SNB-19 = tested on: SNB-19
SNB-75 = tested on: SNB-75
SR = tested on: SR
SW-620 = tested on: SW-620
T47D = tested on: T47D
TK-10 = tested on: TK-10
UACC-257 = tested on: UACC-257
UACC-62 = tested on: UACC-62
UO-31 = tested on: UO-31
OVCAR-3 = tested on: OVCAR-3
OVCAR-5 = tested on: OVCAR-5
SK-MEL-2 = tested on: SK-MEL-2
U-251 = tested on: U-251

Structure (SMILES): N#Cc1ccc(-c2nc(C#N)c(N)o2)cc1
- GI50 (786-0): > 10 µM (inactive)
- GI50 (A549): > 10 µM (inactive)
- GI50 (ACHN): > 10 µM (inactive)
- GI50 (BT-549): > 10 µM (inactive)
- GI50 (CAKI-1): > 10 µM (inactive)
- GI50 (CCRF-CEM): > 10 µM (inactive)
- GI50 (COLO 205): > 10 µM (inactive)
- GI50 (DU-145): > 10 µM (inactive)
- GI50 (EKVX): > 10 µM (inactive)
- GI50 (HCC 2998): > 10 µM (inactive)
- GI50 (HCT-116): > 10 µM (inactive)
- GI50 (HCT-15): > 10 µM
- GI50 (HL-60): > 10 µM (inactive)
- GI50 (HOP-62): > 10 µM (inactive)
- GI50 (HOP-92): > 10 µM (inactive)
- GI50 (HT-29): > 10 µM (inactive)
- GI50 (Hs-578T): > 10 µM (inactive)
- GI50 (IGROV-1): > 10 µM (inactive)
- GI50 (K562): > 10 µM (inactive)
- GI50 (KM12): > 10 µM (inactive)
- GI50 (LOX IMVI): > 10 µM (inactive)
- GI50 (M14): > 10 µM (inactive)
- GI50 (MCF7): > 10 µM (inactive)
- GI50 (MDA-MB-231): > 10 µM (inactive)
- GI50 (MDA-MB-435): > 10 µM (inactive)
- GI50 (MDA-N): > 10 µM (inactive)
- GI50 (MOLT-4): > 10 µM (inactive)
- GI50 (Malme-3M): > 10 µM (inactive)
- GI50 (NCI-H226): > 10 µM (inactive)
- GI50 (NCI-H23): > 10 µM (inactive)
- GI50 (NCI-H460): > 10 µM (inactive)
- GI50 (NCI-H522): > 10 µM (inactive)
- GI50 (NCI/ADR-RES): > 10 µM (inactive)
- GI50 (OVCAR-4): > 10 µM (inactive)
- GI50 (OVCAR-8): > 10 µM (inactive)
- GI50 (PC-3): > 10 µM (inactive)
- GI50 (RPMI-8226): > 10 µM (inactive)
- GI50 (RXF 393): > 10 µM (inactive)
- GI50 (SF-268): > 10 µM (inactive)
- GI50 (SF-295): > 10 µM (inactive)
- GI50 (SF-539): > 10 µM (inactive)
- GI50 (SK-MEL-28): > 10 µM (inactive)
- GI50 (SK-MEL-5): > 10 µM (inactive)
- GI50 (SK-OV-3): > 10 µM (inactive)
- GI50 (SN12C): > 10 µM (inactive)
- GI50 (SNB-19): > 10 µM (inactive)
- GI50 (SNB-75): > 10 µM (inactive)
- GI50 (SR): > 10 µM (inactive)
- GI50 (SW-620): > 10 µM (inactive)
- GI50 (T47D): > 10 µM (inactive)
- GI50 (TK-10): > 10 µM (inactive)
- GI50 (UACC-257): > 10 µM (inactive)
- GI50 (UACC-62): > 10 µM (inactive)
- GI50 (UO-31): > 10 µM (inactive)

Structure (SMILES): CC1=CC(C)C(O)C(C)/C=C\C(O)C/C=C(/C)C(=O)CC(O)C(C)\C=C/C=C\C=C/C(=O)NC2=C(O)C(=O)c3c(cc(C)c(O)c3C1=O)C2=O (centres undefined)
- GI50 (786-0): > 100 µM (inactive)
- GI50 (A549): > 100 µM (inactive)
- GI50 (ACHN): > 100 µM (inactive)
- GI50 (BT-549): > 100 µM (inactive)
- GI50 (CAKI-1): > 100 µM (inactive)
- GI50 (CCRF-CEM): 69.2 µM (inactive)
- GI50 (COLO 205): > 100 µM (inactive)
- GI50 (DU-145): 76.6 µM (inactive)
- GI50 (EKVX): > 100 µM (inactive)
- GI50 (HCC 2998): 86.1 µM (inactive)
- GI50 (HCT-116): 58.1 µM (inactive)
- GI50 (HCT-15): > 100 µM
- GI50 (HL-60): > 100 µM (inactive)
- GI50 (HOP-62): > 100 µM (inactive)
- GI50 (HOP-92): > 100 µM (inactive)
- GI50 (HT-29): 56.4 µM (inactive)
- GI50 (Hs-578T): 46 µM (inactive)
- GI50 (IGROV-1): 74.8 µM (inactive)
- GI50 (KM12): 56.2 µM (inactive)
- GI50 (LOX IMVI): > 100 µM (inactive)
- GI50 (M14): > 100 µM (inactive)
- GI50 (MCF7): 25.8 µM (inactive)
- GI50 (MDA-MB-231): > 100 µM (inactive)
- GI50 (MDA-MB-435): > 100 µM (inactive)
- GI50 (MDA-N): > 100 µM (inactive)
- GI50 (MOLT-4): 71.1 µM (inactive)
- GI50 (NCI-H23): > 100 µM (inactive)
- GI50 (NCI-H460): > 100 µM (inactive)
- GI50 (NCI-H522): > 100 µM (inactive)
- GI50 (NCI/ADR-RES): > 100 µM (inactive)
- GI50 (OVCAR-3): > 100 µM (inactive)
- GI50 (OVCAR-4): > 100 µM (inactive)
- GI50 (OVCAR-5): > 100 µM (inactive)
- GI50 (OVCAR-8): > 100 µM (inactive)
- GI50 (PC-3): > 100 µM (inactive)
- GI50 (RPMI-8226): > 100 µM (inactive)
- GI50 (SF-268): 94.4 µM (inactive)
- GI50 (SF-295): > 100 µM (inactive)
- GI50 (SF-539): 62.1 µM (inactive)
- GI50 (SK-MEL-28): > 100 µM (inactive)
- GI50 (SK-MEL-2): > 100 µM (inactive)
- GI50 (SK-MEL-5): 91 µM (inactive)
- GI50 (SN12C): > 100 µM (inactive)
- GI50 (SNB-19): > 100 µM (inactive)
- GI50 (SNB-75): 25 µM (inactive)
- GI50 (SR): 31.9 µM (inactive)
- GI50 (SW-620): > 100 µM (inactive)
- GI50 (T47D): > 100 µM (inactive)
- GI50 (TK-10): > 100 µM (inactive)
- GI50 (U-251): > 100 µM (inactive)
- GI50 (UACC-257): > 100 µM (inactive)
- GI50 (UACC-62): 97.7 µM (inactive)
- GI50 (UO-31): > 100 µM (inactive)

Structure (SMILES): Cc1ccnc(NC(NC(=O)c2ccccc2)(C(F)(F)F)C(F)(F)F)c1
- GI50 (786-0): > 100 µM (inactive)
- GI50 (A549): > 100 µM (inactive)
- GI50 (ACHN): > 100 µM (inactive)
- GI50 (BT-549): > 100 µM (inactive)
- GI50 (CAKI-1): > 100 µM (inactive)
- GI50 (CCRF-CEM): 75.9 µM (inactive)
- GI50 (COLO 205): > 100 µM (inactive)
- GI50 (DU-145): > 100 µM (inactive)
- GI50 (EKVX): > 100 µM (inactive)
- GI50 (HCC 2998): > 100 µM (inactive)
- GI50 (HCT-116): > 100 µM (inactive)
- GI50 (HCT-15): > 100 µM
- GI50 (HL-60): > 100 µM (inactive)
- GI50 (HOP-62): > 100 µM (inactive)
- GI50 (HOP-92): > 100 µM (inactive)
- GI50 (HT-29): > 100 µM (inactive)
- GI50 (Hs-578T): > 100 µM (inactive)
- GI50 (IGROV-1): > 100 µM (inactive)
- GI50 (K562): > 100 µM (inactive)
- GI50 (KM12): > 100 µM (inactive)
- GI50 (LOX IMVI): > 100 µM (inactive)
- GI50 (M14): > 100 µM (inactive)
- GI50 (MCF7): > 100 µM (inactive)
- GI50 (MDA-MB-231): > 100 µM (inactive)
- GI50 (MDA-MB-435): > 100 µM (inactive)
- GI50 (MDA-N): > 100 µM (inactive)
- GI50 (MOLT-4): > 100 µM (inactive)
- GI50 (Malme-3M): > 100 µM (inactive)
- GI50 (NCI-H226): > 100 µM (inactive)
- GI50 (NCI-H23): > 100 µM (inactive)
- GI50 (NCI-H522): > 100 µM (inactive)
- GI50 (NCI/ADR-RES): > 100 µM (inactive)
- GI50 (OVCAR-3): > 100 µM (inactive)
- GI50 (OVCAR-4): > 100 µM (inactive)
- GI50 (OVCAR-5): > 100 µM (inactive)
- GI50 (OVCAR-8): > 100 µM (inactive)
- GI50 (PC-3): > 100 µM (inactive)
- GI50 (RPMI-8226): 18.2 µM (inactive)
- GI50 (RXF 393): > 100 µM (inactive)
- GI50 (SF-268): > 100 µM (inactive)
- GI50 (SF-295): > 100 µM (inactive)
- GI50 (SF-539): > 100 µM (inactive)
- GI50 (SK-MEL-28): > 100 µM (inactive)
- GI50 (SK-MEL-2): > 100 µM (inactive)
- GI50 (SK-MEL-5): > 100 µM (inactive)
- GI50 (SK-OV-3): > 100 µM (inactive)
- GI50 (SN12C): > 100 µM (inactive)
- GI50 (SNB-19): > 100 µM (inactive)
- GI50 (SNB-75): > 100 µM (inactive)
- GI50 (SR): 41.1 µM (inactive)
- GI50 (SW-620): > 100 µM (inactive)
- GI50 (T47D): > 100 µM (inactive)
- GI50 (TK-10): > 100 µM (inactive)
- GI50 (U-251): > 100 µM (inactive)
- GI50 (UACC-257): > 100 µM (inactive)
- GI50 (UACC-62): > 100 µM (inactive)
- GI50 (UO-31): > 100 µM (inactive)

Reference: ChEMBL document CHEMBL1201862, “PubChem BioAssay data set” (2004)
